From patent publication US10370380B2, “Octahydropyrrolo[3,4-c]pyrrole derivatives and uses thereof” (Sunshine Lake Pharma Co., Ltd., priority 2015, dated 2019)

Legend:
[1] = Pharmacokinetic evaluation after intravenous or gavage administration to dogs; type: in vivo, Beagle dogs; conditions: beagle, dog, in vivo
[2] = target: T1, humanized OX2 receptor (Homo sapiens, UniProt O43614); assay: Antagonistic effect on humanized OX2 receptor, calcium flux by fluorescence detection in HEK-293 cells; type: cell-based; conditions: HEK-293 cells, calcium flux induced by 10 nM orexin B; read-out: OX2 IC50
T1 construct: expressed in transfected cells; host or cells: HEK-293 cells
T1 sequence (O43614 1-444): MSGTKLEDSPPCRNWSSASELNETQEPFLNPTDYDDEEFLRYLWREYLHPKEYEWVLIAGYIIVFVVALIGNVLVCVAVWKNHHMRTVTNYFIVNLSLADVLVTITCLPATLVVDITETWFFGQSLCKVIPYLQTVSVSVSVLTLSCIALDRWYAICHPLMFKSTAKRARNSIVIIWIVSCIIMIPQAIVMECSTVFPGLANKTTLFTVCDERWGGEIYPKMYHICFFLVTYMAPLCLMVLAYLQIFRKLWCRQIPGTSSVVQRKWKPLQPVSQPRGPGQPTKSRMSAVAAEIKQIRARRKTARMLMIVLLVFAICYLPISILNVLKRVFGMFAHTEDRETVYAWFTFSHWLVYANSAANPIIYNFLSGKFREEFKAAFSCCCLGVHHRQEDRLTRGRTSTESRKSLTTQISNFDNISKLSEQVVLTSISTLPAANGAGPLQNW
Description: (§1) The capability of the compounds provided herein to antagonize humanized OX2 receptors expressed in HEK-293 cells was evaluated by the influence of the compounds disclosed herein on calcium flux in cells induced by agonist detected by a method of fluorescence detection. The cells were suspended in DMEM culture medium (invitrogen), and then added to a microplate with an average density of 3×10^4 cells/well. The Hank's balanced salt solution (pH 7.4) containing fluorescent probes (Fluo4 NW, Invitrogen), probenecid (invitrogen), 20 mM […] (invitrogen) was added to the above microplate, and then incubated together with the cells at 37° C. for 60 min, further incubated at 22° C. for 15 min. The microplate was placed in a microplate reader (CellLux, PerkinElmer), and to which was added the test compound or reference antagonist or Hank's balanced salt solution, 5 min later, 10 nM of orexin B or Hank's balanced salt solution (as a blank contrast) was added. […] The experimental results were expressed as an inhibition percentage relative to a control group (the group with 10 nM of orexin B).
The standard reference antagonist is JNJ10397049, and IC50 values were calculated by the dose-effect curve obtained from a series of concentrations of the experimental test.

[3] = target: T2, humanized OX1 receptor (Homo sapiens, UniProt O43613); assay: Antagonistic effect on humanized OX1 receptor, calcium flux by fluorescence detection in CHO cells; type: cell-based
T2 construct: expressed in transfected cells; host or cells: CHO (Chinese hamster ovary) cells
T2 sequence (O43613 1-425): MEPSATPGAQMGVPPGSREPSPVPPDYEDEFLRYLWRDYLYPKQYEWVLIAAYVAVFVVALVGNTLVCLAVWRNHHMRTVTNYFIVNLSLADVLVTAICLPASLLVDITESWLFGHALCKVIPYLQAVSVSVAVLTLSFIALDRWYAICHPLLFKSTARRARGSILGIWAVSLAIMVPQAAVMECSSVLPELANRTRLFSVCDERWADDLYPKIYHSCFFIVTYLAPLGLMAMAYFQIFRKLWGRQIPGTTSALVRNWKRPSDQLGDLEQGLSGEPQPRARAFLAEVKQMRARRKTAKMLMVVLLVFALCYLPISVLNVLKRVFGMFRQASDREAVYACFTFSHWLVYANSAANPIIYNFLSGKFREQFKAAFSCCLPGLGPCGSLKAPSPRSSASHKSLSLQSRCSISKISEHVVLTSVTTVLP
Description: as §1, with “OX1 receptor” for “OX2 receptors”, “Chinese hamster ovary (CHO)” for “HEK-293”, “2×10^4” for “3×10^4”, “3” for “10”, “A” for “B”, “A).” for “B).”
The standard reference antagonist is SB334867, and IC50 values were calculated by the dose-effect curve obtained from a series of concentrations of the experimental test.

Which AUC(0-inf) ([1]; iv, 1 mg/kg) does the source give for `Cc1ccc(-n2nccn2)c(C(=O)N2CC3CN(c4nc5cc(Cl)ccc5o4)CC3C2)c1` (stereo not drawn) [Example 1, (5-(5-chlorobenzo[d]oxazol-2-yl)hexahydropyrrolo[3,4-c]pyrrol-2(1H)-yl)(5-methyl-2-(2H-1,2,3-triazol-2-yl)phenyl)methanone] here?
Its AUC(0-inf) is 2710 ng·h/mL.

What about the AUC(0-t) ([1]; iv, 1 mg/kg) of the same compound?
The AUC(0-t) was 2150 ng·h/mL.

And the Cmax ([1]; iv, 1 mg/kg)?
The Cmax was 821 ng/mL.

What about the MRT inf ([1]; iv, 1 mg/kg) of the same compound?
Its MRT inf is 4.97 h.

What about the Vd ([1]; iv, 1 mg/kg) of the same compound?
Its Vd is 1.83 L/kg.

What about the clearance ([1]; iv, 1 mg/kg) of the same compound?
The clearance was 6.14 mL/min/kg.

And the half-life ([1]; iv, 1 mg/kg)?
Its half-life is 3.73 h.

And the AUC(0-inf) ([1]; po, 5 mg/kg)?
Its AUC(0-inf) is 16300 ng·h/mL.

What about the AUC(0-t) ([1]; po, 5 mg/kg) of the same compound?
Its AUC(0-t) is 15900 ng·h/mL.

And the Cmax ([1]; po, 5 mg/kg)?
The Cmax was 1410 ng/mL.

And the F ([1]; po, 5 mg/kg)?
The F was 147.6%.

What about the MRT inf ([1]; po, 5 mg/kg) of the same compound?
The MRT inf was 6.84 h.

And the half-life ([1]; po, 5 mg/kg)?
The half-life was 4.41 h.

And the IC50 [2]?
The IC50 was 308 nM.

And the IC50 [3]?
Its IC50 is 604 nM.
